We go through six compounds from US11260011B2, “Use of neohesperidin” (NATURAL MEDICINE INSTITUTE OF ZHEJIANG YANGSHENGTANG CO., …, priority 2011, dated 2022).

Where “and” joins values, the source holds several entries; their conditions need not be identical. Equal values may be shown once.

The nature of test [1]: Effect of topical application of neohesperidin on skin microcirculation by Laser Doppler Flowmetery. Type of test: in vivo, Oryctolagus cuniculus. Also on record: key to Working time point: —: represents the time point at which P < 0.1 did not appear during the 24 h test when 2% solution was administered orally. An excerpt: The experimental method for promoting microcirculation: Male Oryctolagus cuniculus weighted 3.0-3.5 kg were used. After shaving the hair on the back of the Oryctolagus cuniculus, 10 points for testing blood flow were marked with a marker pen on the hairless skin of the rabbit, i.e. 5 points for each of the right side and the left side, and aorta was avoided when drawing the points. Before smearing the sample, the basic values of blood flow at the 10 points of rabbits of each experimental group were determined by Laser Doppler Flowmetery. […] 2% (w/v) solution was orally administrated by a similar method in a volume 100 times compared to the volume used in the group wherein the 2% (w/v) solution was administered by smearing. After administration, the blood flow value was determined every hour at the same point by Laser Doppler Flowmetery for 24 h, and the variation index of blood flow was calculated to evaluate the effect of neohesperidin on the back blood of rabbits, wherein a higher variation index of blood flow indicated a better effect of promoting microcirculation. The experimental results were statistically analyzed by SPSS11.5 software, and t-test was applied to the measured data to evaluate the experimental results. When P<0.1, the data may be regarded as statistically significant. In the results of Table 1, all the time points with P<0.1 in the 24-h test were listed.

For test [2] the following is noted: topical application to human skin; cited from earlier work.

Regarding `COc1ccc([C@@H]2CC(=O)c3c(O)cc(O[C@@H]4O[C@H](CO)[C@@H](O)[C@H](O)[C@H]4O[C@@H]4O[C@@H](C)[C@H](O)[C@@H](O)[C@H]4O)cc3O2)cc1O` [neohesperidin], the Working time point is 6 h in test [1] (0.5% (w/v) solution, smearing on back skin, time points with P<0.1 in 24-h test); 2 h and 3 h in test [1] (1% (w/v) solution, smearing on back skin, time points with P<0.1 in 24-h test); “—” in test [1] (2% (w/v) solution, orally, 24-h test). For the same compound, the “blood flow in skin microvessels as compared to the blank side” value in test [1] (smearing backs of rabbits with different concentrations) was “significantly enhanced”. As to `C[C@@H]1CC[C@@]2(OC1)O[C@H]1C[C@H]3[C@@H]4CC=C5C[C@@H](O)C[C@@H](O)[C@]5(C)[C@H]4CC[C@]3(C)[C@H]1[C@@H]2C` [ruscogenin], the “improvement of skin microcirculation after topical administration to skin surface” value (“improvement of skin microcirculation” for short) in test [2] is “cannot significantly improve skin microcirculation”.

On to ginkgo flavone, for which, in test [2], the “improvement of skin microcirculation” value was “cannot significantly improve skin microcirculation”. Consider ginsenoside, for which the “improvement of skin microcirculation” value in test [2] is on record as “cannot significantly improve skin microcirculation”. Turning to tanshinone, in test [2], the “improvement of skin microcirculation” value is given as “cannot significantly improve skin microcirculation”. As to β-aescin, the “improvement of skin microcirculation” value in test [2] was “cannot significantly improve skin microcirculation”.
